Assay results from patent publication US9475814B2, “Chiral N-acyl-5,6,7(8-substituted)-tetrahydro-[1,2,4]triazolo[4,3-a]pyrazines as selective NK-3 receptor antagonists, pharmaceutical composition, methods for use in NK-3 receptor mediated disorders and chiral synthesis thereof” (Euroscreen S.A., priority 2011, dated 2016).

Columns and labels:
human NK-3 receptor [1] = target: T1, human NK-3 receptor (Homo sapiens (Human), UniProt P29371); assay: 3H-SB222200 binding competition assay with human NK-3 receptor; conditions: Table 6; membranes of CHO cells expressing human NK3 receptor, 5 nM 3H-SB222200; read-out: Ki
T1 sequence (P29371 whole entry): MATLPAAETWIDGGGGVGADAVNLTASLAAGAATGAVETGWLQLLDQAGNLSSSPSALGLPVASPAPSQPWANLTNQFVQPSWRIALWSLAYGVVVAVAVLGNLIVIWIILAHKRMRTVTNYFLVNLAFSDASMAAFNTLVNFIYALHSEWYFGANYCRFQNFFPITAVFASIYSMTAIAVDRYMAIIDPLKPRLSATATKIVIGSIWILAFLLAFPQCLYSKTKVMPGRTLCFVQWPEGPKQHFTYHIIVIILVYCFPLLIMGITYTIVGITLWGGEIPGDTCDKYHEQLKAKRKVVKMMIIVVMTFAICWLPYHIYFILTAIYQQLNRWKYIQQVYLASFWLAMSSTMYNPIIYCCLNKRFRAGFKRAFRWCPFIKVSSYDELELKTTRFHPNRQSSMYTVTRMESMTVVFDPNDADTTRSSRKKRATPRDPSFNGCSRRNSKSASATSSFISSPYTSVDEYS
Description: ^3H-SB222200 Binding Competition Assay with Human NK-3 Receptor
The membranes were incubated with 5 nM ^3H-SB222200(ARC) in a HEPES 25 mM/NaCl 0.1M/CaCl2 1 mM/MgCl2 5 Mm/BSA 0.5%/Saponin 10 μg/ml buffer at pH 7.4 and various concentrations of compounds of the invention. The amount of ^3H-SB222200 bound to the receptor was determined after filtration by the quantification of membrane associated radioactivity using the TopCount-NXT reader (Packard).

human NK-3 receptor [2] = target: T1, human NK-3 receptor; assay: Aequorin functional assay with human NK-3 receptor (antagonist testing vs NKA); format: cell-based; conditions: inhibition of NKA (3 nM, EC80) response, CHO cells expressing human NK3 receptor and apoaequorin

`Cc1nc(-c2nnc3n2CCN(C(=O)c2ccc(-c4ccccc4)cc2)[C@@H]3C)cs1` [Compound 2, (R)-[1,1′-biphenyl]-4-yl(8-methyl-3-(2-methylthiazol-4-yl)-5,6-dihydro-[1,2,4]triazolo[4,3-a]pyrazin-7(8H)-yl)methanone] showed a Ki (human NK-3 receptor [1]) of 26 nM and an IC50 (human NK-3 receptor [2]) of 28 nM.
With `CCc1nc(-c2nnc3n2CCN(C(=O)c2ccc(-c4cccs4)cc2)[C@@H]3C)cs1` [Compound 5, (R)-(3-(2-ethylthiazol-4-yl)-8-methyl-5,6-dihydro-[1,2,4]triazolo[4,3-a]pyrazin-7(8H)-yl)(4-(thiophen-2-yl)phenyl)methanone] the Ki (human NK-3 receptor [1]) was 5 nM and the IC50 (human NK-3 receptor [2]) was 3 nM.
Work on `CCc1nc(-c2nnc3n2CCN(C(=O)c2ccc(-c4ccccc4)cc2)[C@@H]3C)cs1` [Compound 6, (R)-[1,1′-biphenyl]-4-yl(3-(2-ethylthiazol-4-yl)-8-methyl-5,6-dihydro-[1,2,4]triazolo[4,3-a]pyrazin-7(8H)-yl)methanone] yielded a Ki (human NK-3 receptor [1]) of 11 nM and an IC50 (human NK-3 receptor [2]) of 10 nM.
In the case of `C=Cc1nc(-c2nnc3n2CCN(C(=O)c2ccc(-c4cccs4)cc2)[C@@H]3C)cs1` [Compound 7, (R)-(8-methyl-3-(2-vinylthiazol-4-yl)-5,6-dihydro-[1,2,4]triazolo[4,3-a]pyrazin-7(8H)-yl)(4-(thiophen-2-yl)phenyl)methanone], the Ki (human NK-3 receptor [1]) is reported as 4 nM and the IC50 (human NK-3 receptor [2]) is reported as 3 nM.
Compound `C=Cc1nc(-c2nnc3n2CCN(C(=O)c2ccc(-c4ccccc4)cc2)[C@@H]3C)cs1` [Compound 8, (R)-[1,1′-biphenyl]-4-yl(8-methyl-3-(2-vinylthiazol-4-yl)-5,6-dihydro-[1,2,4]triazolo[4,3-a]pyrazin-7(8H)-yl)methanone] has a Ki (human NK-3 receptor [1]) of 7 nM and an IC50 (human NK-3 receptor [2]) of 7 nM.
Compound `C=Cc1nc(-c2nnc3n2CCN(C(=O)c2ccc(-c4cccs4)cc2)C3)cs1` [Compound 9, (4-(thiophen-2-yl)phenyl)(3-(2-vinylthiazol-4-yl)-5,6-dihydro-[1,2,4]triazolo[4,3-a]pyrazin-7(8H)-yl)methanone] has a Ki (human NK-3 receptor [1]) of 19 nM and an IC50 (human NK-3 receptor [2]) of 18 nM.
`C=Cc1nc(-c2nnc3n2CCN(C(=O)c2ccc(-c4ccccc4)cc2)C3)cs1` [Compound 10, [1,1′-biphenyl]-4-yl(3-(2-vinylthiazol-4-yl)-5,6-dihydro-[1,2,4]triazolo[4,3-a]pyrazin-7(8H)-yl)methanone] gave a Ki (human NK-3 receptor [1]) of 36 nM and an IC50 (human NK-3 receptor [2]) of 20 nM.
`Cc1nc(-c2nnc3n2CCN(C(=O)c2ccc(-c4ccccc4)cc2)[C@@H]3C)co1` [Compound 12, (R)-[1,1′-biphenyl]-4-yl(8-methyl-3-(2-methyloxazol-4-yl)-5,6-dihydro-[1,2,4]triazolo[4,3-a]pyrazin-7(8H)-yl)methanone] gave a Ki (human NK-3 receptor [1]) of 70 nM and an IC50 (human NK-3 receptor [2]) of 58 nM.
`CC(C)c1nc(-c2nnc3n2CCN(C(=O)c2ccc(-c4cccs4)cc2)[C@@H]3C)co1` [Compound 13, (R)-(3-(2-isopropyloxazol-4-yl)-8-methyl-5,6-dihydro-[1,2,4]triazolo[4,3-a]pyrazin-7(8H)-yl)(4-(thiophen-2-yl)phenyl)methanone] was tested, and the Ki (human NK-3 receptor [1]) was 3 nM and the IC50 (human NK-3 receptor [2]) was 2 nM.
Work on `CC(C)c1nc(-c2nnc3n2CCN(C(=O)c2ccc(-c4cccs4)cc2)C3)co1` [Compound 14, (3-(2-isopropyloxazol-4-yl)-5,6-dihydro-[1,2,4]triazolo[4,3-a]pyrazin-7(8H)-yl)(4-(thiophen-2-yl)phenyl)methanone] yielded a Ki (human NK-3 receptor [1]) of 42 nM and an IC50 (human NK-3 receptor [2]) of 47 nM.
`C[C@@H]1c2nnc(-c3coc(C4CC4)n3)n2CCN1C(=O)c1ccc(-c2cccs2)cc1` [Compound 15, (R)-(3-(2-cyclopropyloxazol-4-yl)-8-methyl-5,6-dihydro-[1,2,4]triazolo[4,3-a]pyrazin-7(8H)-yl)(4-(thiophen-2-yl)phenyl)methanone] was tested, and the Ki (human NK-3 receptor [1]) was 11 nM and the IC50 (human NK-3 receptor [2]) was 9 nM.
In the case of `Cc1coc(-c2nnc3n2CCN(C(=O)c2ccc(-c4cccs4)cc2)[C@@H]3C)n1` [Compound 26, (R)-(8-methyl-3-(4-methyloxazol-2-yl)-5,6-dihydro-[1,2,4]triazolo[4,3-a]pyrazin-7(8H)-yl)(4-(thiophen-2-yl)phenyl)methanone], the IC50 (human NK-3 receptor [2]) is reported as 12 nM.
